From patent US9670210B2, “Cyclopropylamines as LSD1 inhibitors” (Incyte Corporation, priority 2014, dated 2017)

Target: LSD-1 enzyme (Homo sapiens (Human), UniProt O60341)
Protocol: LSD1 Histone Demethylase Biochemical Assay
LANCE LSD1/KDM1A demethylase assay-10 μL of 1 nM LSD-1 enzyme (ENZO BML-SE544-0050) in the assay buffer (50 mM Tris, pH 7.5, 0.01% Tween-20, 25 mM NaCl, 5 mM DTT) were preincubated for 1 hour at 25° C. with 0.8 μL compound/DMSO dotted in black 384 well polystyrene plates. […] After stopping the reactions plates were incubated for 30 minutes and read on a PHERAstar FS plate reader (BMG Labtech).

Row | SMILES | IC50 [nM]
1 | CNC(=O)c1cccc(OCC2(CN[C@@H]3C[C@H]3c3ccccc3)CCN(CC3(C(=O)O)CC3)CC2)n1 [Example 91, 1-{[4-[({6-[(methylamino)carbonyl]pyridin-2-yl}oxy)methyl]-4-({[(1R,2S)-2-phenylcyclopropyl]amino}methyl)piperidin-1-yl]methyl}cyclopropanecarboxylic acid] | < 100
2 | N#Cc1cccc(OCC2(CN[C@@H]3C[C@H]3c3ccccc3)CCN(CC3(C(=O)O)CCC3)CC2)c1 [Example 84, 1-{[4-[(3-cyanophenoxy)methyl]-4-({[(1R,2S)-2-phenylcyclopropyl]amino}methyl)piperidin-1-yl]methyl}cyclobutanecarboxylic acid] | < 100
3 | N#Cc1ccc(CC2(CN[C@@H]3C[C@H]3c3ccccc3)CCN(CC3(C(=O)O)CC3)CC2)cc1 [Example 55, 1-{[4-(4-cyanobenzyl)-4-({[(1R,2S)-2-phenylcyclopropyl]amino}methyl)piperidin-1-yl]methyl}cyclopropanecarboxylic acid] | < 100
4 | COCC1(CN[C@@H]2C[C@H]2c2ccccc2)CCN(C(=O)c2ccn(C)n2)CC1 [Example 42, (1R,2S)—N-({4-(methoxymethyl)-1-[(1-methyl-1H-pyrazol-3-yl)carbonyl]piperidin-4-yl}methyl)-2-phenylcyclopropanamine] | < 100
5 | COc1ccc(NC(=O)N2CC(CN[C@@H]3C[C@H]3c3ccccc3)C2)cc1 (relative stereo) [Example 22, N-(4-Methoxyphenyl)-3-{[(trans-2-phenylcyclopropyl)amino]methyl}azetidine-1-carboxamide] | < 100
6 | O=C(O)C1(CN2CCC(CN[C@@H]3C[C@H]3c3ccccc3)(COCc3ccccc3)CC2)CCC1 [Example 73, 1-{[4-[(benzyloxy)methyl]-4-({[(1R,2S)-2-phenylcyclopropyl]amino}methyl)piperidin-1-yl]methyl}cyclobutanecarboxylic acid] | < 100
7 | COCC1(CN[C@@H]2C[C@H]2c2ccccc2F)CCN(CC2(C(=O)O)CCC2)CC1 [Example 64, 1-{[4-({[(1R,2S)-2-(2-fluorophenyl)cyclopropyl]amino}methyl)-4-(methoxymethyl)piperidin-1-yl]methyl}cyclobutanecarboxylic acid] | < 100
8 | COc1cccc(NC(=O)N2CC(CN[C@@H]3C[C@H]3c3ccccc3)C2)c1 (relative stereo) [Example 23, N-(3-Methoxyphenyl)-3-{[(trans-2-phenylcyclopropyl)amino]methyl}azetidine-1-carboxamide] | < 100
9 | O=C(O)C1(CN2CCC(CN[C@@H]3C[C@H]3c3ccccc3)(COc3cccc(F)c3)CC2)CCC1 [Example 78, 1-{[4-[(3-fluorophenoxy)methyl]-4-({[(1R,2S)-2-phenylcyclopropyl]amino}methyl)piperidin-1-yl]methyl}cyclobutanecarboxylic acid] | < 100
10 | COCC1(CNC2CC2c2ccc(OC)cc2)CCN(CC2(C(=O)O)CCC2)CC1 (centres unmarked) [Example 67, 1-{[4-(methoxymethyl)-4-({[2-(4-methoxyphenyl)cyclopropyl]amino}methyl)piperidin-1-yl]methyl}cyclobutanecarboxylic acid] | < 100
11 | N#Cc1ccccc1OCC1(CN[C@@H]2C[C@H]2c2ccccc2)CCN(CC2(C(=O)O)CCC2)CC1 [Example 83, 1-{[4-[(2-cyanophenoxy)methyl]-4-({[(1R,2S)-2-phenylcyclopropyl]amino}methyl)piperidin-1-yl]methyl}cyclobutanecarboxylic acid] | < 100
12 | O=C(O)C1(CN2CCC(CN[C@@H]3C[C@H]3c3ccccc3)(COc3cccc(F)c3)CC2)CC1 [Example 77, 1-{[4-[(3-fluorophenoxy)methyl]-4-({[(1R,2S)-2-phenylcyclopropyl]amino}methyl)piperidin-1-yl]methyl}cyclopropanecarboxylic acid] | < 100
13 | COCC1(CN[C@@H]2C[C@H]2c2ccccc2)CCN(C(=O)N2CC[C@@H](O)C2)CC1 [Example 60, (3R)-1-{[4-(methoxymethyl)-4-({[(1R,2S)-2-phenylcyclopropyl]amino}methyl)piperidin-1-yl]carbonyl}pyrrolidin-3-ol] | < 100
14 | O=C(O)C1(CN2CCC(CN[C@@H]3C[C@H]3c3ccccc3)(COc3ccccc3F)CC2)CC1 [Example 75, 1-{[4-[(2-fluorophenoxy)methyl]-4-({[(1R,2S)-2-phenylcyclopropyl]amino}methyl)piperidin-1-yl]methyl}cyclopropanecarboxylic acid] | < 100
15 | COCC1(CN[C@@H]2C[C@H]2c2ccccc2)CCN(S(=O)(=O)c2ccn(C)n2)CC1 [Example 116, (1R,2S)—N-({4-(methoxymethyl)-1-[(1-methyl-1H-pyrazol-3-yl)sulfonyl]piperidin-4-yl}methyl)-2-phenylcyclopropanamine] | < 100
16 | N#Cc1cccc(CN2CC(CN[C@@H]3C[C@H]3c3ccccc3)C2)c1 (relative stereo) [Example 7, 3-[(3-{[(trans-2-Phenylcyclopropyl)amino]methyl}azetidin-1-yl)methyl]benzonitrile] | < 100
17 | O=C(O)C1(CN2CCC(CN[C@@H]3C[C@H]3c3ccccc3)(Cc3ccc(F)cc3)CC2)CCC1 [Example 32, 1-{[4-(4-fluorobenzyl)-4-({[(1R,2S)-2-phenylcyclopropyl]amino}methyl)piperidin-1-yl]methyl}cyclobutanecarboxylic acid] | < 100
18 | O=C(O)C1(CN2CCC(CN[C@@H]3C[C@H]3c3ccccc3)(Cc3ccc(F)cn3)CC2)CC1 [Example 96, 1-{[4-[(5-fluoropyridin-2-yl)methyl]-4-({[(1R,2S)-2-phenylcyclopropyl]amino}methyl)piperidin-1-yl]methyl}cyclopropanecarboxylic acid] | < 100
19 | COCC1(CN[C@@H]2C[C@H]2c2ccccc2)CCN(C(=O)c2cnn(CCC#N)c2)CC1 [Example 106, 3-(4-{[4-(methoxymethyl)-4-({[(1R,2S)-2-phenylcyclopropyl]amino}methyl)piperidin-1-yl]carbonyl}-1H-pyrazol-1-yl)propanenitrile] | < 100
20 | COCC1(CN[C@@H]2C[C@H]2c2ccccc2)CCN(C(=O)[C@H]2CC[C@@H](CO)CC2)CC1 [Example 101, (cis-4-{[4-(methoxymethyl)-4-({[(1R,2S)-2-phenylcyclopropyl]amino}methyl)piperidin-1-yl]carbonyl}cyclohexyl)methanol] | < 100
21 | N#CCc1ccc(CC2(CN[C@@H]3C[C@H]3c3ccccc3)CCN(CC3(C(=O)O)CCC3)CC2)cc1 [Example 54, 1-{[4-[4-(cyanomethyl)benzyl]-4-({[(1R,2S)-2-phenylcyclopropyl]amino}methyl)piperidin-1-yl]methyl}cyclobutanecarboxylic acid] | < 100
22 | COc1cccc(CN2CCC(CN[C@@H]3C[C@H]3c3ccccc3)(Cc3cccc(C(=O)O)c3)CC2)c1 [Example 59, 3-{[1-(3-methoxybenzyl)-4-({[(1R,2S)-2-phenylcyclopropyl]amino}methyl)piperidin-4-yl]methyl}benzoic acid] | < 100
23 | N#Cc1cccc(C(=O)N2CC(CN[C@@H]3C[C@H]3c3ccccc3)C2)c1 (relative stereo) [Example 26, 3-[(3-{[(trans-2-Phenylcyclopropyl)amino]methyl}azetidin-1-yl)carbonyl]benzonitrile] | < 100
